Experimental data from patent publication US20090286827A1, “NOVEL BI-ARYL AMINES” (priority 2006, published 2009).

Target: T1, mGluR5 (Homo sapiens, UniProt P41594)
T1 construct: expressed in transfected cells
Assay: inhibition of the glutamate induced elevation of intracellular Ca2+-concentration
Assay type: cell-based
Details: inhibition of glutamate induced elevation of intracellular Ca2+ at a concentration of 10 μM; read-out: mGluR5 Activity inh. at 10 μM [%]
Description: This can be determined in vitro for example at recombinant human metabotropic glutamate receptors, especially PLC-coupled subtypes thereof such as mGluR5, using different procedures like, for example, measurement of the inhibition of the agonist induced elevation of intracellular Ca^2+ concentration in accordance with L. P. Daggett et al., Neuropharm. Vol. 34, pages 871-886 (1995), P. J. Flor et al., J. Neurochem. Vol. 67, pages 58-63 (1996) or by determination to what extent the agonist induced elevation of the inositol phosphate turnover is inhibited as described by T. Knoepfel et al., Eur. J. Pharmacol. Vol. 288, pages 389-392 (1995), L. P. Daggett et al., Neuropharm. Vol. 34, pages 871-886 (1995) and references cited therein. Isolation and expression of human mGluR subtypes are described in U.S. Pat. No. 5,521,297. Selected agents of the invention show IC50 values for the inhibition of the agonist (e.g. glutamate or quisqualate) induced elevation of intracellular Ca2+ concentration or the agonist (e.g. glutamate or quisqualate) induced inositol phosphate turnover, measured in recombinant cells expressing hmGluR5a of about 1 nM to about 50 μM.
Activity of compounds of the present invention was examined by measurement of the inhibition of the glutamate induced elevation of intracellular Ca^2+-concentration following similar methods than those described in L. P. Daggett et al., Neuropharm. Vol. 34, pages 871-886 (1995), P. J. Flor et al., J. Neurochem. Vol. 67, pages 58-63 (1996).
The table below represents percentages of inhibition of the glutamate induced elevation of intracellular Ca^2+-concentration at a concentration of 10 μM.

T1 sequence (P41594 21-1180 isoform P41594-2 limits assumed): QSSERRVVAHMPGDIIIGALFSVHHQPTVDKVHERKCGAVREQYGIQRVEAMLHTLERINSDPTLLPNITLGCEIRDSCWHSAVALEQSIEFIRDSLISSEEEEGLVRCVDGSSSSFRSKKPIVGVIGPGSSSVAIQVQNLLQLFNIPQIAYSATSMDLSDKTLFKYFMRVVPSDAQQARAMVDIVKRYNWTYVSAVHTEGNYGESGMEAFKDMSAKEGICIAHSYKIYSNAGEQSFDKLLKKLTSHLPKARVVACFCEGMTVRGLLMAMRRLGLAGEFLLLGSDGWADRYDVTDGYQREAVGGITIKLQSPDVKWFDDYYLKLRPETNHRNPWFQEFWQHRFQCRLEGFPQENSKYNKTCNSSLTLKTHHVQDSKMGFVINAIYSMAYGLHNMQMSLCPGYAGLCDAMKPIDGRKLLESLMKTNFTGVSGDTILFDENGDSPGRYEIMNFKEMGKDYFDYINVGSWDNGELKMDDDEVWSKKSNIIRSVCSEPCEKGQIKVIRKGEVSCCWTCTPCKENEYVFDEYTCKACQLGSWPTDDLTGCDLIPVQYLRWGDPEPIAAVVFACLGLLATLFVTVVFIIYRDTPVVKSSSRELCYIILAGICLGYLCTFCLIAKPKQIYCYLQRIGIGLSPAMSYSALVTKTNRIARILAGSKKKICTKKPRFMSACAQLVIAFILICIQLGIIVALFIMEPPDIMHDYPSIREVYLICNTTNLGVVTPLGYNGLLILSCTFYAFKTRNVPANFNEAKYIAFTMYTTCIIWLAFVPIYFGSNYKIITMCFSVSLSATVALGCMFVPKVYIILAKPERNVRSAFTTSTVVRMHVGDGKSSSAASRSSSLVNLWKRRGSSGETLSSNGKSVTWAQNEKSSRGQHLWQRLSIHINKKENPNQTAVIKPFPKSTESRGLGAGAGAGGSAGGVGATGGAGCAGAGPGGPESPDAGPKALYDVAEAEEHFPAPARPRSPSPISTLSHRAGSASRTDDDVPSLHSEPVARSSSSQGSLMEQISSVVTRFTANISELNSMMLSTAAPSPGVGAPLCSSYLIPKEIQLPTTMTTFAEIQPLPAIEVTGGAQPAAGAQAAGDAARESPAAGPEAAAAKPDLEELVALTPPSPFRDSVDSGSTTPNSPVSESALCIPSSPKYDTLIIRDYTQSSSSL

Row | inhibition at 10 µM [%] | SMILES
1 | 98 | Clc1ccc(Nc2ncc(-c3nnc4n3CCCCCC4)cc2Cl)cc1 [Compound 26, [3-Chloro-5-(5,6,7,8,9,10-hexahydro-[1,2,4]triazolo[4,3-a]azocin-3-yl)-pyridin-2-yl]-(4-chloro-phenyl)-amine]
2 | 95 | Clc1ccc(Nc2ncc(-c3ncc4n3CCCC4)cc2Cl)cc1 [Compound 17, (4-Chloro-phenyl)-[3-chloro-5-(5,6,7,8-tetrahydro-imidazo[1,5-a]pyridin-3-yl)-pyridin-2-yl]-amine]
3 | 95 | CCn1cc(C)nc1-c1cnc(Nc2ccc(Cl)cc2)c(Cl)c1 [Compound 32, [3-Chloro-5-(1-ethyl-4-methyl-1H-imidazol-2-yl)-pyridin-2-yl]-(4-chloro-phenyl)-amine]
4 | 40 | CC(C)n1cnnc1-c1ccc(Nc2ccc(Cl)cc2)nc1 [Compound 12, (4-Chloro-phenyl)-[5-(4-isopropyl-4H-[1,2,4]triazol-3-yl)-pyridin-2-yl]-amine]
5 | 53 | CC(C)Cn1nnnc1-c1cnc(Nc2ccc(Cl)cc2)c(Cl)c1 [Compound 23, [3-Chloro-5-(1-isobutyl-1H-tetrazol-5-yl)-pyridin-2-yl]-(4-chloro-phenyl)-amine]
6 | 95 | CCn1ccnc1-c1cnc(Nc2ccc(C)nc2)c(Cl)c1 [Compound 18, [3-Chloro-5-(1-ethyl-1H-imidazol-2-yl)-pyridin-2-yl]-(6-methyl-pyridin-3-yl)-amine]
7 | 56 | CC(C)n1cnc(-c2ccc(Nc3ccc(Cl)cc3)nc2)c1 [Compound 11, (4-Chloro-phenyl)-[5-(1-isopropyl-1H-imidazol-4-yl)-pyridin-2-yl]-amine]
8 | 97 | CCCn1ccnc1-c1cnc(Nc2ccc(Cl)cc2)c(Cl)c1 [Compound 19, (4-Chloro-phenyl)-[3-chloro-5-(1-propyl-1H-imidazol-2-yl)-pyridin-2-yl]-amine]
9 | 49 | CCCn1nnnc1-c1cnc(Nc2ccc(Cl)cc2)c(Cl)c1 [Compound 22, (4-Chloro-phenyl)-[3-chloro-5-(1-propyl-1H-tetrazol-5-yl)-pyridin-2-yl]-amine]
10 | 32 | Clc1ccc(Nc2ncc(-c3ncc4ccccn34)cc2Cl)cc1 [Compound 16, (3-Chloro-5-imidazo[1,5-a]pyridin-3-yl-pyridin-2-yl)-(4-chloro-phenyl)-amine]
11 | 31 | CCn1cccc1-c1cnc(Nc2ccc(Cl)cc2)c(Cl)c1 [Compound 28, [3-Chloro-5-(1-ethyl-1H-pyrrol-2-yl)-pyridin-2-yl]-(4-chloro-phenyl)-amine]
12 | 32 | Cc1cncn1-c1cnc(Nc2ccc(Cl)cc2)c(Cl)c1 [Compound 48, [3-Chloro-5-(5-methyl-imidazol-1-yl)-pyridin-2-yl]-(4-chloro-phenyl)-amine]
13 | 36 | Clc1ccc(Nc2ccc(-c3nccn3Cc3ccccc3)cn2)cc1 [Compound 8, [5-(1-Benzyl-1H-imidazol-2-yl)-pyridin-2-yl]-(4-chloro-phenyl)-amine]
14 | 89 | Clc1ccc(Nc2ncc(-c3nnc4n3CCCC4)cc2Cl)cc1 [Compound 24, (4-Chloro-phenyl)-[3-chloro-5-(5,6,7,8-tetrahydro-[1,2,4]triazolo[4,3-a]pyridin-3-yl)-pyridin-2-yl]-amine]
15 | 94 | CCCn1c(-c2cnc(Nc3ccc(Cl)cc3)c(Cl)c2)nc(C)c1C [Compound 42, [3-Chloro-5-(4,5-dimethyl-1-propyl-1H-imidazol-2-yl)-pyridin-2-yl]-(4-chloro-phenyl)-amine]
16 | 92 | CCn1c(-c2cnc(Nc3ccc(Cl)cc3)c(Cl)c2)nc(C)c1C [Compound 20, [3-Chloro-5-(1-ethyl-4,5-dimethyl-1H-imidazol-2-yl)-pyridin-2-yl]-(4-chloro-phenyl)-amine]
17 | 98 | Cc1cn(C)c(-c2cnc(Nc3ccc(Cl)cc3)c(Cl)c2)n1 [Compound 30, [3-Chloro-5-(1,4-dimethyl-1H-imidazol-2-yl)-pyridin-2-yl]-(4-chloro-phenyl)-amine]
18 | 28 | Clc1ccc(Nc2ccc(-c3nnc4ccccn34)cn2)cc1 [Compound 14, (4-Chloro-phenyl)-(5-[1,2,4]triazolo[4,3-a]pyridin-3-yl-pyridin-2-yl)-amine]
